Results published in patent US11673889B2, “Substituted imidazo[4,5-c][1,8]naphthyridines as phosphodiesterase inhibitors” (Nanjing Zhengxiang Pharmaceuticals Co., Ltd., priority 2019, dated 2023).

Experiments:
ENPP-1, HEK293 cells = target: T1, ENPP-1, HEK293 cells (Homo sapiens, UniProt P22413); test: Cellular enzymatic assay of ENPP-1 inhibitors using TMP-pNP as substrate, HEK 293 cells; format: cell-based; conditions: for inhibition at 20 µM: HEK293, HEK 293 cells, read-out: Inhibition (at 20 μM)
T1 construct: ENPP-1 were mainly expressed on the surface of cell membrane; endogenous in cells; host or cells: HEK293
T1 sequence (P22413 1-925): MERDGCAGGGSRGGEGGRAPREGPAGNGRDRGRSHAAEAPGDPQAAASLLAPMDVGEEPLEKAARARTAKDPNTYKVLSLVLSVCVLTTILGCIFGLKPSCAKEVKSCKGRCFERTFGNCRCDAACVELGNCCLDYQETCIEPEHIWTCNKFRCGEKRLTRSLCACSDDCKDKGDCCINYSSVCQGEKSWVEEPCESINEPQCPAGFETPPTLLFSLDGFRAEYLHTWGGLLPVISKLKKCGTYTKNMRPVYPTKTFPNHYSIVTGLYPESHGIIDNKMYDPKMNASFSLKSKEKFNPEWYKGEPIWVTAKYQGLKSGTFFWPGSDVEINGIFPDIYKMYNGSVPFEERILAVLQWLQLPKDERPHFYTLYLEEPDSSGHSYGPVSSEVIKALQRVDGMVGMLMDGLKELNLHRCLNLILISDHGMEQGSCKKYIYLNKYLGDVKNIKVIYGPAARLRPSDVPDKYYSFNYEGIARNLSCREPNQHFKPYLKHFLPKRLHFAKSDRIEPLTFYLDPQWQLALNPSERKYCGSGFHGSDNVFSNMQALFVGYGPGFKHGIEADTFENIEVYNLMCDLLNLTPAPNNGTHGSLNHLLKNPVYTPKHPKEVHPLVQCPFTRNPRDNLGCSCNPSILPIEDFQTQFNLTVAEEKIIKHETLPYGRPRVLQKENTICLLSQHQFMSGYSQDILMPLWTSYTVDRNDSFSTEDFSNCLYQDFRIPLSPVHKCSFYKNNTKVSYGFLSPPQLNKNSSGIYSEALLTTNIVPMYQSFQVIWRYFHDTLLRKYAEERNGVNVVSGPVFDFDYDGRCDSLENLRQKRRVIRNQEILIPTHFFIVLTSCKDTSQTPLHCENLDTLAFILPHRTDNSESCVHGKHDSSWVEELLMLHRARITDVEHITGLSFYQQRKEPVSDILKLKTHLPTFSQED
Procedure: (§1) ENPP-1 were mainly expressed on the surface of cell membrane where it hydrolytes 2′3′-cGAMP to generate 5′-GMP and 5′-AMP. ENPP-1 also has the ability to hydrolyzes artificial phosphoric acid ester TMP-pNP to nucleotide-5′-monophosphate and p-nitrophcnol there, which is a chromogenic product.
(§2) 8 point of different concentrations of each inhibitor were prepared with the final assay concentrations starting at 20 μM. 3× series dilution by DMEM medium without FBS was applied. Prior to adding inhibitors, 75000 cells per well were incubated at 37° C., 5% CO2 in DMEM for 24 hours. After removing the supernatant medium, 50 μL inhibitor solution was added into each well with cultured cells and incubate at 37° C., 5% CO2 for 60 minutes.
(§3) The IC50 values for percent inhibition versus compound concentration are determined by fitting the inhibition curves using a four-parameter variable slope model in GraphPad Prism® 8.

ENPP-1, Saos-2 cells = target: T2, ENPP-1, Saos-2 cells (Homo sapiens, UniProt P22413); test: Cellular enzymatic assay of ENPP-1 inhibitors using TMP-pNP as substrate, Saos-2 cells; format: cell-based
T2 construct: ENPP-1 were mainly expressed on the surface of cell membrane; endogenous in cells; host or cells: Saos-2
T2 sequence (P22413 1-925): T1 sequence (P22413 1-925)
Procedure: as §1, §2, §3

[1] = Liver microsome stability, mouse; format: in vitro ADME
Procedure: (§4) Liver microsome assay was used to evaluate the metabolic stability of I-VI. The test article at the concentration of […] was incubated with 0.5 mg/mL liver microsome in the presence of NADPH and UDPGA as the co-factors for 0, 15, 30, 45 and 60 minutes. The incubation was carried out at 37° C. with 5% CO2 and saturating humidity. Disappearance of the test article was monitored by LC/MS/MS. the disappearance half-life (t1/2), intrinsic clearance and hepatic extraction ratio were determined.

[2] = Liver microsome stability, human; format: in vitro ADME
Procedure: as §4

## COc1ccc2c(ncc3nc(C)n(Cc4ccc(S(N)(=O)=O)cc4)c32)n1 [Compound 48, 4-((7-methoxy-2-methyl-1H-imidazo[4,5-c][1,8]naphthyridin-1-yl)methyl)benzenesulfonamide]
ENPP-1, HEK293 cells
  IC50: 670 nM
  inhibition at 20 µM: 95%

## COc1cc2ncc3ncn(Cc4ccc(S(N)(=O)=O)cn4)c3c2cc1OC [Compound 12, 6-((7,8-dimethoxy-1H-imidazo[4,5-c]quinolin-1-yl)methyl)pyridine-3-sulfonamide]
ENPP-1, HEK293 cells
  IC50: 2300 nM
  inhibition at 20 µM: 85%
ENPP-1, Saos-2 cells
  IC50: 1000 nM
ENPP-1, Saos-2 cells; Saos-2 cells, @20 μM, read-out: % Inhibition (@20 μM)
  inhibition at 20 µM: 87%
[1]; Mouse liver microsome
  Hepatic extraction ratio Re: 0.20
[1]; liver microsomes, Mouse liver microsome 0.5 mg/mL, NADPH and UDPGA, 37° C., read-out: Half-life t1/2
  half-life: 3.95 h
[1]; liver microsomes, Mouse liver microsome, read-out: Intrinsic clearance Cl′int, (μL/min/mg protein)
  microsomal CLint: 5.9 µL/min/mg
[2]; Human liver microsome
  Hepatic extraction ratio Re: 0.14
[2]; liver microsomes, Human liver microsome 0.5 mg/mL, NADPH and UDPGA, 37° C., read-out: Half-life t1/2
  half-life: 8.27 h
[2]; liver microsomes, Human liver microsome, read-out: Intrinsic clearance Cl′int, (μL/min/mg protein)
  microsomal CLint: 2.8 µL/min/mg
